Test: Metabolic stability in human liver microsomes assessed as compound remaining after 1 hr
Assay type: ADME, Microsome
Settings: read-out: Stability

O=C(N1CCN(c2ncnc3[nH]nc(Cl)c23)CC1)C1(c2ccc(Cl)c(Cl)c2)CCNCC1
remaining at 1 h: 80%
